Experimental data reported in the NIST ThermoML archive (doi:10.1016/j.jct.2015.09.029).

Experiment: mn = molality of the nth substance listed, in mol/kg
Conditions: 100 kPa, Liquid; for viscosity: Capillary tube (Ostwald / Ubbelohde) method; for speed of sound: Frequency=2 MHz, Linear variable-path acoustic interferometer; for mass density: Vibrating tube method

CCCC[P+](C)(CCCC)CCCC.COS(=O)(=O)[O-] [tributylmethylphosphonium methyl sulfate] + O
Conditions	mass density [kg/m3]	speed of sound [m/s]	viscosity [mPa·s]
298.15 K, m1 = 0.0282	997.65	1504.7	0.9199
298.15 K, m1 = 0.0438	997.98	1507.9	0.9362
298.15 K, m1 = 0.0564	998.25	1510.3	0.9494
298.15 K, m1 = 0.0658	998.45	1512.1	0.9592
298.15 K, m1 = 0.0847	998.86	1515.5	0.9789
298.15 K, m1 = 0.113	999.46	1520.9	1.009
298.15 K, m1 = 0.174	1000.77	1533.3	1.073
298.15 K, m1 = 0.2336	1002.05	1545.1	1.135
298.15 K, m1 = 0.2813	1003.07	1554.3	1.185
303.15 K, m1 = 0.0282	996.22	1517.7	0.8225
303.15 K, m1 = 0.0438	996.54	1521.6	0.8362
303.15 K, m1 = 0.0564	996.8	1524.6	0.8473
303.15 K, m1 = 0.0658	996.99	1526.7	0.8555
303.15 K, m1 = 0.0847	997.38	1530.7	0.8722
303.15 K, m1 = 0.113	997.96	1536.2	0.8971
303.15 K, m1 = 0.174	999.21	1547.8	0.951
303.15 K, m1 = 0.2336	1000.44	1558.6	1.004
303.15 K, m1 = 0.2813	1001.42	1566.7	1.046
308.15 K, m1 = 0.0282	994.58	1527.2	0.7395
308.15 K, m1 = 0.0438	994.89	1530.9	0.7505
308.15 K, m1 = 0.0564	995.14	1533.7	0.7595
308.15 K, m1 = 0.0658	995.32	1535.9	0.7662
308.15 K, m1 = 0.0847	995.7	1539.9	0.7796
308.15 K, m1 = 0.113	996.25	1545.9	0.7997
308.15 K, m1 = 0.174	997.45	1557.5	0.8432
308.15 K, m1 = 0.2336	998.62	1568.4	0.8857
308.15 K, m1 = 0.2813	999.56	1576.3	0.9199
313.15 K, m1 = 0.0282	992.74	1536.3	0.6725
313.15 K, m1 = 0.0438	993.04	1540	0.6832
313.15 K, m1 = 0.0564	993.27	1542.7	0.6919
313.15 K, m1 = 0.0658	993.45	1544.8	0.6983
313.15 K, m1 = 0.0847	993.81	1548.8	0.7113
313.15 K, m1 = 0.113	994.34	1554.2	0.7308
313.15 K, m1 = 0.174	995.49	1564.7	0.7728
313.15 K, m1 = 0.2336	996.62	1572	0.814
313.15 K, m1 = 0.2813	997.52	1578	0.847

CCCC[P+](CCCC)(CCCC)CCCC.[Cl-] [tetrabutylphosphonium chloride] + O
Conditions	mass density [kg/m3]	speed of sound [m/s]	viscosity [mPa·s]
298.15 K, m1 = 0.0249	996.83	1506.4	0.9234
298.15 K, m1 = 0.0773	996.44	1520	0.9925
298.15 K, m1 = 0.1592	995.93	1541.6	1.101
298.15 K, m1 = 0.2659	995.41	1567.7	1.241
298.15 K, m1 = 0.3842	994.99	1593.7	1.397
298.15 K, m1 = 0.4509	994.8	1607.4	1.486
298.15 K, m1 = 0.504	994.67	1617.5	1.556
298.15 K, m1 = 0.5771	994.5	1630.3	1.652
303.15 K, m1 = 0.0249	995.41	1518.2	0.8256
303.15 K, m1 = 0.0773	994.97	1532.4	0.8843
303.15 K, m1 = 0.1592	994.37	1551.9	0.9761
303.15 K, m1 = 0.2659	993.73	1575.2	1.095
303.15 K, m1 = 0.3842	993.17	1598.2	1.228
303.15 K, m1 = 0.4509	992.9	1610.1	1.302
303.15 K, m1 = 0.504	992.7	1619.5	1.362
303.15 K, m1 = 0.5771	992.42	1633.2	1.444
308.15 K, m1 = 0.0295	993.74	1529.8	0.7476
308.15 K, m1 = 0.0842	993.23	1541.2	0.7998
308.15 K, m1 = 0.1722	992.52	1559.9	0.8836
308.15 K, m1 = 0.2979	991.68	1585.8	1.004
308.15 K, m1 = 0.3554	991.35	1595.6	1.058
308.15 K, m1 = 0.4266	990.98	1607.8	1.126
308.15 K, m1 = 0.4508	990.86	1611.9	1.149
308.15 K, m1 = 0.5619	990.34	1628.9	1.255
313.15 K, m1 = 0.0295	991.9	1537.3	0.6773
313.15 K, m1 = 0.0842	991.36	1547.8	0.722
313.15 K, m1 = 0.1722	990.57	1566.5	0.7937
313.15 K, m1 = 0.2979	989.61	1588.4	0.8964
313.15 K, m1 = 0.3554	989.21	1597.3	0.9432
313.15 K, m1 = 0.4266	988.76	1607.8	1.001
313.15 K, m1 = 0.4508	988.61	1611.4	1.021
313.15 K, m1 = 0.5619	987.95	1627.3	1.112
